# Tests used:
# [1] = test system: dopaminergic neurons; assay: Dopamine concentration in midbrain culture; type: cell-based, mice; conditions: 50 μM, 48 hours, 10 DIV-12 DIV
# Procedure: FIG. 2a Dopamine concentration (dopamine content) after incubation with 50 μM 9-methyl-β-carboline for 48 hours from 10 DIV-12 DIV.
# (§1) To obtain further hints that the number of dopaminergic neurons really has increased, the dopamine concentration was measured. […] Another characteristic and specificity of dopaminergic neurons is the transport of dopamine into the neurons. Dopamine cannot permeate the outer membrane of neurons because of its hydrophilic character. It must be actively and energy-dependently transported through the DAT mechanism.
# [2] = test system: midbrain cells in culture; assay: Dead (necrotic) cells by propidium iodide staining of cell nuclei; type: cell-based, mice; conditions: 48 hours, 50 μM; control about 20%
# Procedure: FIG. 4b Percentage of dead (necrotic) cells after incubation with 50 μM 9-methyl-β-carboline for 48 hours 10 DIV-12 DIV.
# (§2) Dying cells release the enzyme lactate dehydrogenase (LDH) into the medium. Since cells always die in culture always a small LDH concentration can be detected in the medium as an indirect measure for the vitality of the culture. Compared to control conditions the LDH concentration decreased after incubation with 9-methyl-β-carboline in a dose-dependent manner with a concentration up to 50 μM (FIG. 4a). The number of dead cells can be quantified by staining the cell nuclei with propidium iodide.
# [3] = test system: human neuroblastoma cell line (SH-SY5Y-cells); assay: Differentiation and proliferation (bromodeoxyuridine incorporation) of human neuroblastoma cells; type: cell-based
# Procedure: FIG. 5 Percentage of BrdU-positive cells of human neuroblastoma cells after incubation with 50 μM 9-methyl-β-carboline for 48 hours 10 DIV-12 DIV.
# FIG. 6 Evidence of the reduction of cell proliferation by incorporation of bromodeoxyuridine into the cell nucleus chromatin.
# The experiments were carried out with the human neuroblastoma cell line (SH-SY5Y-cells) and with a cell culture of primary nerve cells from the mice embryo midbrain. […] Moreover, the mentioned compounds induce in the primary culture from the mice embryo midbrain the generation of new, differentiated and functional dopaminergic neurons.
# The question whether 9-Alkyl-β-carboline derivatives lead to the differentiation of neurons is of outstanding importance.
# This cell line has many characteristics which dopaminergic neurons have as well. […] So this confirms the observations in the primary midbrain cultures that 9-methyl-β-carboline promotes the differentiation and thus the maturation of neuronal cells (FIG. 1a and FIG. 1b).
# Cell proliferation can be measured by the incorporation of bromodeoxyuridine. […] This hints at a reduction of cell proliferation. This finding also supports the other findings that 9-alkyl-β-carboline derivatives promote cell differentiation.
# [4] = test system: midbrain cells in culture; assay: LDH release of midbrain cells in culture; type: cell-based, mice; conditions: 48 hours; dose-dependent up to 50 μM
# Procedure: FIG. 4a LDH release after 48 hours of incubation with 50 μM 9-methyl-β-carboline for 48 hours 10 DIV-12 DIV.
# as §2
# [5] = test system: glial cell line-derived neurotrophic factor (GDNF); assay: PCR superarray of RNA from the striata of MPP+ rats: GDNF; type: in vivo, rat
# Text: To investigate Parkinson's disease acute in vivo models are used for years although chronic models would be a better model for the disease. Another disadvantage of the acute models is that ca. 40% of the animals die from the application of the neurotoxin. Therefore, we have chosen a chronic model in which comparably very low doses of neurotoxin 1-methyl-4-phenylpyridinium (MPP^+) were infused for 28 days into the left lateral ventricle of the rat brain. The substance was continuously applied through osmotic minipumps. Thereby, casualties were completely avoided. After four weeks, either solvent or equimolar amounts of the sample substance, namely neuroprotective betacarboline, resp. 9-alkyl-betacarboline was infused for two weeks via the same catheter. In a preliminary study for dose-finding the MPP^+ dose which leads to a reduction by 40% of the dopamine concentration in the striatum was determined. The dopamine concentration in the striatum is a characteristic marker for Parkinson's disease in which a degeneration of dopaminergic neurons occurs.
# An explanation for the effect of the betacarboline was found in the tests of the RNA from the striata of these rats through the PCR superarray method. Accordingly, the betacarboline activates the generation of neurotrophins, thus proteins produced naturally in the body, which are responsible for the growth and differentiation of neurons. […]
# [6] = test system: midbrain cells in culture; assay: ATP content of midbrain culture; type: cell-based, mice; conditions: 50 μM, 48 hours
# Procedure: FIG. 4c ATP concentration (ATP content) after incubation with 50 μM 9-methyl-β-carboline (9-Me-BV) for 48 hours 10 DIV-12 DIV.
# (§3) In 48 hours about 20% of the cells in culture died. In cultures with a 9-Alkyl-β-carboline only about 10% of the cells died under the same conditions (FIG. 4b). Thus, the findings are in line with the LDH findings. ATP provides the cell with energy. […] The enzyme caspase-3 is an indicator for apoptosis. After 24 hours, the enzyme activity was reduced which hints at a reduction of apoptotic processes, after 48 hours, however, it was increased (FIG. 4d). The last finding hints at a switch of culture cells from reduced necrosis to apoptosis, thus a more precise regulation of cell death.
# [7] = test system: dopaminergic neurons; assay: 3H-dopamine uptake (dopamine transport capacity) in midbrain culture; type: cell-based, mice; conditions: 50 μM, 48 hours, 10 DIV-12 DIV
# Procedure: FIG. 2b Dopamine transport capacity of dopaminergic neurons after 48 hours. ^3H-dopamine uptake after incubation with 50 μM 9-Me-BC for 48 hours from 10 DIV-12 DIV.
# as §1
# [8] = test system: caspase-3; assay: Activity of the apoptosis enzyme caspase-3 in midbrain culture; type: cell-based, mice; conditions: 50 μM
# Procedure: FIG. 4d Activity of the apoptosis enzyme caspase-3 during and after incubation with 50 μM 9-methyl-β-carboline for 48 hours 10 DIV-12 DIV.
# as §3
smiles,measurement,setting,value
Cn1c2ccccc2c2ccncc21 [9-methyl-β-carboline],dopamine concentration (dopamine content),[1],slightly increased without reaching significance level
same,cells in culture that died,[2],about 10%
same,installation of bromodeoxyuridine into the chromatin in the cell nucleus,"[3]; 50 μM, 48 hours, BrdU-positive cells",decreases
same,cellular extensions of neuroblastoma cells,[3]; human neuroblastoma cells,growth of cellular extensions
same,proliferation of neuroblastoma cells vs control cells,[3]; human neuroblastoma cells,proliferate less than control cells
same,LDH concentration in the medium compared to control,[4],decreased
same,concentration of GDNF,[5]; left striatum,did not increase
same,increase of GDNF by factor,[5]; right striatum,12
same,concentration of ATP,[6],increased
same,neuronal transport capacity of dopamine (3H-dopamine uptake),[7],increases
same,caspase-3 enzyme activity,[8]; after 24 hours,reduced
same,caspase-3 enzyme activity,[8]; after 48 hours,increased

# Reference: US8334299B2, “β-carboline for the treatment of neurodegenerative diseases” (Ellneuroxx, Ltd., priority 2007, dated 2012)
